# Experimental data from patent US10597388B2, “Pyridazinone herbicides” (FMC CORPORATION, priority 2014, dated 2020).
# How the values were obtained:
# Assay in all cases: Test D controlled growth environment herbicide test, pre- and postemergence
# Type in all cases: in vivo
# [1] = test system: Russian thistle (Salsola kali)
# Excerpt: (§1) Seeds of plant species selected from bluegrass (annual bluegrass, Poa annua), blackgrass (Alopecurus myosuroides), Canada thistle (Cirsium arvense), canarygrass (Phalaris minor), chickweed (common chickweed, Stellaria media), geranium, cutleaf (cutleaf geranium, Geranium dissectum), galium (catchweed bedstraw, Galium aparine), bromegrass, downy (downy bromegrass, Bromus tectorum), field poppy (Papaver rhoeas), field violet (Viola arvensis), foxtail, green (green foxtail, Setaria viridis), deadnettle (henbit deadnettle, Lamium amplexicaule), ryegrass, Italian (Italian ryegrass, Lolium multiflorum), kochia (Kochia scoparia), lambsquarters (Chenopodium album), oilseed rape (Brassica napus), pigweed (Amaranthus retroflexus), chamomile (scentless chamomile, Matricaria inodora), Russian thistle (Salsola kali), speedwell (bird's-eye speedwell, Veronica persica), barley, spring (spring barley, Hordeum vulgare), wheat, spring (spring wheat, Triticum aestivum), buckwheat, wild (wild buckwheat, Polygonum convolvulus), mustard, wild (wild mustard, Sinapis arvensis), oat, wild (wild oat, Avena fatua), radish, wild (wild radish, Raphanus raphanistrum), windgrass (Apera spica-venti), barley, winter (winter barley, Hordeum vulgare), and wheat, winter (winter wheat, Triticum aestivum) were planted into a silt loam soil and treated preemergence with test chemicals formulated in a non-phytotoxic solvent mixture which included a surfactant.
# (§2) At the same time, these species were planted in pots containing Redi-Earth® planting medium (Scotts Company, 14111 Scottslawn Road, Marysville, Ohio 43041) comprising spaghnum peat moss, vermiculite, wetting agent and starter nutrients and treated with postemergence applications of the test chemicals formulated in the same manner. Plants ranged in height from 2 to 18 cm (1- to 4-leaf stage). Treated plants and controls were maintained in a controlled growth environment for 14 to 21 d after which time all species were compared to controls and visually evaluated. Plant response ratings, summarized in Table D, are based on a scale of 0 to 100 where 0 is no effect and 100 is complete control. A dash (-) response means no test result.
# [2] = test system: barley, spring (spring barley, Hordeum vulgare)
# Excerpt: as §1, §2
# [3] = test system: barley, winter (winter barley, Hordeum vulgare)
# Excerpt: as §1, §2
# [4] = test system: blackgrass (Alopecurus myosuroides)
# Excerpt: as §1, §2
# [5] = test system: bluegrass (annual bluegrass, Poa annua)
# Excerpt: as §1, §2
# [6] = test system: field poppy (Papaver rhoeas)
# Excerpt: as §1, §2
# kochia (Kochia scoparia) = test system: kochia (Kochia scoparia)
# Excerpt: as §1, §2
# [7] = test system: mustard, wild (wild mustard, Sinapis arvensis)
# Excerpt: as §1, §2
# [8] = test system: oat, wild (wild oat, Avena fatua)
# Excerpt: as §1, §2
# [9] = test system: pigweed (Amaranthus retroflexus)
# Excerpt: as §1, §2
# [10] = test system: radish, wild (wild radish, Raphanus raphanistrum)
# Excerpt: as §1, §2
# [11] = test system: speedwell (bird's-eye speedwell, Veronica persica)
# Excerpt: as §1, §2
# [12] = test system: wheat, spring (spring wheat, Triticum aestivum)
# Excerpt: as §1, §2
# [13] = Postemergence, 31 g ai/ha, scale 0 to 100 (0 no effect, 100 complete control)
# [14] = Postemergence, 125 g ai/ha, visual rating on scale 0 (no effect) to 100 (complete control), 14 to 21 d
# [15] = Postemergence, 250 g ai/ha, scale 0 to 100 (0 no effect, 100 complete control)
# [16] = Preemergence, 62 g ai/ha, scale 0 to 100 (0 no effect, 100 complete control)
# [17] = Preemergence, 125 g ai/ha, scale 0 to 100 (0 no effect, 100 complete control)
# [18] = Preemergence, 250 g ai/ha, scale 0 to 100, 0 no effect, 100 complete control
# [19] = postemergence, 62 g ai/ha, scale 0 to 100, 0 no effect, 100 complete control
smiles,measurement,setting,value
Cc1nn(C)c(=O)c(-c2c(C)sc3ccc(Br)cc23)c1O [Compound 22],Russian Thistle plant response rating,[1]; [13],65
same,"Plant response rating, Russian Thistle",[1]; [14],75
same,"Plant response rating, Russian Thistle",[1]; [15],85
same,"Plant response rating (scale of 0 to 100), Russian Thistle","[1]; Preemergence, 31 g ai/ha",0
same,"Plant response rating, Russian Thistle",[1]; [16],0
same,"Plant response rating, Russian Thistle",[1]; [17],0
same,"Plant response rating, Russian Thistle",[1]; [18],20
same,"Plant response rating, Russian Thistle",[1]; [19],70
same,"Plant response rating, Barley, Spring",[2]; [13],0
same,"Plant response rating, Barley, Spring",[2]; [14],15
same,"Plant response rating, Barley, Spring",[2]; [15],15
same,"Plant response rating (scale of 0 to 100), Barley, Spring","[2]; Preemergence, 31 g ai/ha",0
same,"Plant response rating, Barley, Spring",[2]; [16],0
same,"Plant response rating, Barley, Spring",[2]; [17],0
same,"Barley, Spring plant response rating",[2]; [18],0
same,"Plant response rating, Barley, Spring",[2]; [19],0
same,"Plant response rating, Barley, Winter",[3]; [13],0
same,"Plant response rating, Barley, Winter",[3]; [14],0
same,"Plant response rating, Barley, Winter",[3]; [15],5
same,"Plant response rating (scale of 0 to 100), Barley, Winter","[3]; Preemergence, 31 g ai/ha",0
same,"Plant response rating, Barley, Winter",[3]; [16],0
same,"Plant response rating, Barley, Winter",[3]; [17],0
same,"Barley, Winter plant response rating",[3]; [18],0
same,"Plant response rating, Barley, Winter",[3]; [19],0
same,Blackgrass plant response rating,[4]; [13],15
same,"Plant response rating, Blackgrass",[4]; [14],45
same,"Plant response rating, Blackgrass",[4]; [15],70
same,"Plant response rating (scale of 0 to 100), Blackgrass","[4]; Preemergence, 31 g ai/ha",45
same,"Plant response rating, Blackgrass",[4]; [16],45
same,"Plant response rating, Blackgrass",[4]; [17],55
same,Blackgrass plant response rating,[4]; [18],75
same,"Plant response rating, Blackgrass",[4]; [19],20
same,Bluegrass plant response rating,[5]; [13],10
same,"Plant response rating, Bluegrass",[5]; [14],25
same,"Plant response rating, Bluegrass",[5]; [15],25
same,"Plant response rating (scale of 0 to 100), Bluegrass","[5]; Preemergence, 31 g ai/ha",0
same,"Plant response rating, Bluegrass",[5]; [16],30
same,"Plant response rating, Bluegrass",[5]; [17],30
same,Bluegrass plant response rating,[5]; [18],40
same,"Plant response rating, Bluegrass",[5]; [19],15
same,Field Poppy plant response rating,[6]; [13],75
same,"Plant response rating, Field Poppy",[6]; [14],100
same,"Plant response rating, Field Poppy",[6]; [15],100
same,"Plant response rating (scale of 0 to 100), Field Poppy","[6]; Preemergence, 31 g ai/ha",0
same,"Plant response rating, Field Poppy",[6]; [16],0
same,"Plant response rating, Field Poppy",[6]; [17],100
same,"Plant response rating, Field Poppy",[6]; [18],100
same,"Plant response rating, Field Poppy",[6]; [19],85
same,Kochia plant response rating,kochia (Kochia scoparia); [13],80
same,"Plant response rating, Kochia",kochia (Kochia scoparia); [14],100
same,"Plant response rating, Kochia",kochia (Kochia scoparia); [15],100
same,"Plant response rating (scale of 0 to 100), Kochia","kochia (Kochia scoparia); Preemergence, 31 g ai/ha",35
same,"Plant response rating, Kochia",kochia (Kochia scoparia); [16],35
same,"Plant response rating, Kochia",kochia (Kochia scoparia); [17],50
same,"Plant response rating, Kochia",kochia (Kochia scoparia); [18],75
same,"Plant response rating, Kochia",kochia (Kochia scoparia); [19],95
same,"Mustard, Wild plant response rating",[7]; [13],90
same,"Plant response rating, Mustard, Wild",[7]; [14],100
same,"Plant response rating, Mustard, Wild",[7]; [15],100
same,"Plant response rating (scale of 0 to 100), Mustard, Wild","[7]; Preemergence, 31 g ai/ha",5
same,"Plant response rating, Mustard, Wild",[7]; [16],65
same,"Plant response rating, Mustard, Wild",[7]; [17],85
same,"Plant response rating, Mustard, Wild",[7]; [18],95
same,"Plant response rating, Mustard, Wild",[7]; [19],95
same,"Oat, Wild plant response rating",[8]; [13],65
same,"Plant response rating, Oat, Wild",[8]; [14],85
same,"Plant response rating, Oat, Wild",[8]; [15],100
same,"Plant response rating (scale of 0 to 100), Oat, Wild","[8]; Preemergence, 31 g ai/ha",30
same,"Plant response rating, Oat, Wild",[8]; [16],55
same,"Plant response rating, Oat, Wild",[8]; [17],70
same,"Plant response rating, Oat, Wild",[8]; [18],95
same,"Plant response rating, Oat, Wild",[8]; [19],85
same,Pigweed plant response rating,[9]; [13],85
same,"Plant response rating, Pigweed",[9]; [14],98
same,"Plant response rating, Pigweed",[9]; [15],100
same,"Plant response rating (scale of 0 to 100), Pigweed","[9]; Preemergence, 31 g ai/ha",100
same,"Plant response rating, Pigweed",[9]; [16],98
same,"Plant response rating, Pigweed",[9]; [17],98
same,"Plant response rating, Pigweed",[9]; [18],100
same,"Plant response rating, Pigweed",[9]; [19],95
same,"Radish, Wild plant response rating",[10]; [13],85
same,"Plant response rating, Radish, Wild",[10]; [14],100
same,"Plant response rating, Radish, Wild",[10]; [15],85
same,"Plant response rating (scale of 0 to 100), Radish, Wild","[10]; Preemergence, 31 g ai/ha",0
same,"Plant response rating, Radish, Wild",[10]; [16],25
same,"Plant response rating, Radish, Wild",[10]; [17],70
same,"Plant response rating, Radish, Wild",[10]; [18],80
same,"Plant response rating, Radish, Wild",[10]; [19],75
same,Speedwell plant response rating,[11]; [13],60
same,"Plant response rating, Speedwell",[11]; [14],65
same,"Plant response rating, Speedwell",[11]; [15],100
same,"Plant response rating (scale of 0 to 100), Speedwell","[11]; Preemergence, 31 g ai/ha",0
same,"Plant response rating, Speedwell",[11]; [16],0
same,"Plant response rating, Speedwell",[11]; [17],50
same,"Plant response rating, Speedwell",[11]; [18],100
same,"Plant response rating, Speedwell",[11]; [19],60
same,"Wheat, Spring plant response rating",[12]; [13],5
same,"Plant response rating, Wheat, Spring",[12]; [14],10
same,"Plant response rating, Wheat, Spring",[12]; [15],15
same,"Plant response rating (scale of 0 to 100), Wheat, Spring","[12]; Preemergence, 31 g ai/ha",0
same,"Plant response rating, Wheat, Spring",[12]; [16],0
same,"Plant response rating, Wheat, Spring",[12]; [17],10
same,"Plant response rating, Wheat, Spring",[12]; [18],25
same,"Plant response rating, Wheat, Spring",[12]; [19],10
